What all share (type): functional
In experiment [1] the test system is Mus musculus. In words: Antihyperglycemic activity in C57BL-6J ob/ob mouse type 2 diabetic model assessed as body weight per mouse at 1000 mg/kg, po administered as single dose for 24 hrs.
For experiment [2], the system named is Mus musculus. Put plainly: Antihyperglycemic activity in C57BL-6J ob/ob mouse type 2 diabetic model assessed as changes in plasma glucose level at 1000 mg/kg, po administered as single dose for 24 hrs.
For experiment [3], the system named is Mus musculus. Put plainly: Antihyperglycemic activity in C57BL-6J ob/ob mouse type 2 diabetic model assessed as changes in plasma glucose level at 1.09 mmol/kg, po administered as single dose for 3 hrs.
Experiment [4] has as its system Mus musculus. Put plainly: Antihyperglycemic activity in C57BL-6J ob/ob mouse type 2 diabetic model assessed as food intake per mouse at 1.09 mmol/kg, po administered as single dose.
Experiment [5] concerns Mus musculus. In words: Antihyperglycemic activity in C57BL-6J ob/ob mouse type 2 diabetic model assessed as food intake per mouse at 1000 mg/kg, po administered as single dose.
Experiment [6] relates to Mus musculus. In words: Antihyperglycemic activity in C57BL-6J ob/ob mouse type 2 diabetic model assessed as body weight per mouse at 1.09 mmol/kg, po administered as single dose for 24 hrs.
Experiment [7] relates to Mus musculus. Put plainly: Antihyperglycemic activity in C57BL-6J ob/ob mouse type 2 diabetic model assessed as changes in plasma glucose level at 1.09 mmol/kg, po administered as single dose for 24 hrs.
Experiment [8] deals with Mus musculus. Put plainly: Antihyperglycemic activity in C57BL-6J ob/ob mouse type 2 diabetic model assessed as changes in plasma glucose level at 1000 mg/kg, po administered as single dose for 3 hrs.
The subject of experiment [9] is Mus musculus. Put plainly: Antihyperglycemic activity in C57BL-6J ob/ob mouse type 2 diabetic model assessed as food intake per mouse at 1.5 mmol/kg, po administered as single dose.
The test system of experiment [10] is Mus musculus. Put plainly: Antihyperglycemic activity in C57BL-6J ob/ob mouse type 2 diabetic model assessed as changes in plasma glucose level at 1.5 mmol/kg, po administered as single dose for 24 hrs.
In experiment [11] the test system is Mus musculus. Put plainly: Antihyperglycemic activity in C57BL-6J ob/ob mouse type 2 diabetic model assessed as body weight per mouse at 1.5 mmol/kg, po administered as single dose for 24 hrs.
In experiment [12] the test system is Mus musculus. Put plainly: Antihyperglycemic activity in C57BL-6J ob/ob mouse type 2 diabetic model assessed as changes in plasma glucose level at 1.5 mmol/kg, po administered as single dose for 3 hrs.

The structures appear in SMILES notation.

Regarding `Cc1coc2c(O)c3c(c(C)c12)[C@@H](C)CCC3` [CACALOL], the Activity is 45 g in the experiment on Mus musculus [1]; -13.4 mg/dL in the experiment on Mus musculus [2]; -124 mg/dL in the experiment on Mus musculus [3]; 4.1 g in the experiment with Mus musculus [4]; 4.6 g in the experiment with Mus musculus [5]; 43.5 g in the experiment on Mus musculus [6]. The Activity in the experiment with Mus musculus [7] was 48.3 mg/dL; with Mus musculus [8], -105.1 mg/dL.

For the compound `Cc1coc2c1[C@](C)(O)C1=C(CCC[C@@H]1C)C2=O` [CACALONE], the Activity in the experiment on Mus musculus [1] was 45 g; in the experiment with Mus musculus [2] it was -13.4 mg/dL; in the experiment on Mus musculus [3], -3 mg/dL; in the experiment on Mus musculus [4] it was 4.8 g; in the experiment on Mus musculus [5], 4.6 g; in the experiment with Mus musculus [6], 41.4 g. Further, the Activity in the experiment with Mus musculus [7] is 29.5 mg/dL; with Mus musculus [8] it was -105.1 mg/dL.

Take `Cc1coc2c1[C@@](C)(O)C1=C(CCC[C@@H]1C)C2=O` [EPICACALONE]: the Activity with Mus musculus [1] was 45 g; in the experiment with Mus musculus [2], -13.4 mg/dL; in the experiment with Mus musculus [3], -42.4 mg/dL; in the experiment on Mus musculus [4] it was 4 g; in the experiment on Mus musculus [5], 4.6 g; in the experiment on Mus musculus [6], 43.3 g. Moreover, the Activity is 30.9 mg/dL with Mus musculus [7] and -105.1 mg/dL in the experiment with Mus musculus [8].

In the case of `CN(C)C(=N)NC(=N)N` [METFORMIN], the Activity is 4.5 g in the experiment with Mus musculus [9], 76.1 mg/dL in the experiment with Mus musculus [10], 43.2 g with Mus musculus [11] and -151.8 mg/dL in the experiment on Mus musculus [12].

For the origin of these results see ChEMBL document CHEMBL1144080, “Antihyperglycemic sesquiterpenes from Psacalium decompositum” (1999).
